Earlier results, collected in US8048906B2, “Optically pure and enriched isomers of chelating ligands and contrast agents” (Catalyst Medical, priority 2003, dated 2011).

Conditions: binds to HA; peptide isolated from a random 12-mer phage peptide library (Mummert et al., J. Exp. Med. 2000)

In the case of GAHWQFNALTVR, the Kd is given as about 1000 nM.
